From PMC10996616 (bioRxiv, 2024)

Columns and labels:
[1] = target: PaFSCY (individual cyclase domain of fusicoccadiene synthase) (Diaporthe amygdali, UniProt A2PZA5); assay: EnzChek pyrophosphate release, steady-state kinetics, A360; type: biochemical; conditions: Mg2+ 2.5 mM, pH 7.5; cyclization to fusicoccadiene
[2] = target: PaFS (full-length fusicoccadiene synthase) (Diaporthe amygdali, UniProt A2PZA5); assay: as above; type: biochemical; conditions: Mg2+ 2.5 mM, pH 7.5; cyclization to fusicoccadiene; cyclase domain
PaFS (full-length fusicoccadiene synthase), sequence (A2PZA5 whole entry, the tested form may be a part): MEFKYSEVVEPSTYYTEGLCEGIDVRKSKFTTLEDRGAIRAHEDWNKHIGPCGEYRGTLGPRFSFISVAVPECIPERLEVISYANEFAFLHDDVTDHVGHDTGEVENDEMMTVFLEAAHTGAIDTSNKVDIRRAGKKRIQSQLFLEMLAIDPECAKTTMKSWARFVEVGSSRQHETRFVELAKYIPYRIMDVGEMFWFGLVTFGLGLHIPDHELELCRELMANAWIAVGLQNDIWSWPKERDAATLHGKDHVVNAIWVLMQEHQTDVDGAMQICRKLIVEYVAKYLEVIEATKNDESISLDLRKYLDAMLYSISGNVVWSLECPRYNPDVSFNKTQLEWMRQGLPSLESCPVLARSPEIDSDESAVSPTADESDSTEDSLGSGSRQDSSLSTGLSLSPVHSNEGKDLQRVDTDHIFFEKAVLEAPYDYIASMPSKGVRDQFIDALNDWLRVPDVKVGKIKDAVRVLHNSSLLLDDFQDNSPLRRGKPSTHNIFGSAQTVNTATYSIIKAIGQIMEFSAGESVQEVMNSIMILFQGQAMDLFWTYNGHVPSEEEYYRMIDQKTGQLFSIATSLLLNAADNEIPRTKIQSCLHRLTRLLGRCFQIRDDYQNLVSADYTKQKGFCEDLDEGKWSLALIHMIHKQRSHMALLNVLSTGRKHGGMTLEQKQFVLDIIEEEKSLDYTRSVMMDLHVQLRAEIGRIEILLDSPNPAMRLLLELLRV

PaFSCY (individual cyclase domain of fusicoccadiene synthase), sequence (A2PZA5 1-344): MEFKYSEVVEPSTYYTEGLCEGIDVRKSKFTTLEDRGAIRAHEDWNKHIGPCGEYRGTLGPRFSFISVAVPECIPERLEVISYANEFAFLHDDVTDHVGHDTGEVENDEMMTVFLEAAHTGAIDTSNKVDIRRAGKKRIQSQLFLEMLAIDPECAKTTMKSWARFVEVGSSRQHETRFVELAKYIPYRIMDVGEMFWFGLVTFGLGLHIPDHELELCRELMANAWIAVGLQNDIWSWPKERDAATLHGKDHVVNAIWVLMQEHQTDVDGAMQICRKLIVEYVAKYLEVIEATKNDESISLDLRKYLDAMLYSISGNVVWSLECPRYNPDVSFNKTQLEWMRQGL

CC(C)=CCC/C(C)=C/CC/C(C)=C/CC/C(C)=C/COP(=O)(O)OP(=O)(O)O [GGPP, geranylgeranyl diphosphate]
KM [1]: (PaFS, PaFSLL, and PaFSCY) are most efficient
KM [2]: (PaFS, PaFSLL, and PaFSCY) are most efficient
